The target in series [1] is T1, Protein cereblon/NAD-dependent protein deacylase sirtuin-6 (Homo sapiens, UniProt Q8N6T7+Q96SW2). Kind of series: PROTAC activity at CRBN/SIRT6 in human SK-HEP1 cells assessed as induction of SIRT6 degradation at 200 nM incubated for 36 hrs by In-Cell ELISA relative to control. Type of series: cell-based. A general note: ELISA stands for enzyme-linked immunosorbent assay.
Target sequence in this assay (Q8N6T7 2-355 limits assumed): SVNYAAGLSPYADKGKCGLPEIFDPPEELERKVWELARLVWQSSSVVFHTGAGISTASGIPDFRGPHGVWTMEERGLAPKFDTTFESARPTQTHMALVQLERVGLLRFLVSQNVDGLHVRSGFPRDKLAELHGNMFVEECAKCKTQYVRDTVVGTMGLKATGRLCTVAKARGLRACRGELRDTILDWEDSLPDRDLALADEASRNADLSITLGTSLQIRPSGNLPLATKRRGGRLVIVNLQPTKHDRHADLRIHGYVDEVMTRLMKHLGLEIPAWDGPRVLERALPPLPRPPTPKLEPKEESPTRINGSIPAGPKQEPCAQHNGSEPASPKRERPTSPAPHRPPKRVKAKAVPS
Target sequence in this assay (Q96SW2 whole entry partner): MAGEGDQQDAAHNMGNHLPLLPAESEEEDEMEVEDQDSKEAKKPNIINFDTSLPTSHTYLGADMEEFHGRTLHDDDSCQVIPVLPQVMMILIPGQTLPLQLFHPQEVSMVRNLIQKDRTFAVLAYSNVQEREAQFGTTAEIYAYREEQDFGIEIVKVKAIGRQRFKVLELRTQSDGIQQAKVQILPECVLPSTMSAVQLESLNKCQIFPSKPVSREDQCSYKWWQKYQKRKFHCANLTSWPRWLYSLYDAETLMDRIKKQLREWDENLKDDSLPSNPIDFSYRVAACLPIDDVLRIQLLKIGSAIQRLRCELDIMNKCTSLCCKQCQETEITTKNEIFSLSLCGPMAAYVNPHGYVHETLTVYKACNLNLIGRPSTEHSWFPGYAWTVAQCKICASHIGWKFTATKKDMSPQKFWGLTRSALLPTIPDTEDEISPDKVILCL

Series [2] deals with T1, Protein cereblon/NAD-dependent protein deacylase sirtuin-6. Briefly: PROTAC activity at CRBN/SIRT6 in human SK-HEP1 cells assessed as induction of SIRT6 degradation incubated for 36 hrs by Western blot analysis. Type of series: cell-based. Conditions: for Activity: dose 0.02-5 µM. Background: A western blot detects proteins with antibodies after separation by electrophoresis.

For series [3] the target is unchanged. Briefly: PROTAC activity at CRBN/SIRT6 in human SK-HEP1 cells assessed as induction of SIRT6 degradation at 0.02 to 5 uM incubated for 36 hrs by Western blot analysis. Type of series: cell-based. Conditions: dose 0.02-5 µM.
Target sequence in this assay (Q8N6T7 2-355 limits assumed): as the sequence (Q8N6T7 2-355 limits assumed) above
Target sequence in this assay (Q96SW2 whole entry partner): as the sequence (Q96SW2 whole entry partner) above
The target is the same in series [4]. Briefly: PROTAC activity at CRBN/SIRT6 in human Huh-7 cells assessed as induction of SIRT6 degradation incubated for 36 hrs by Western blot analysis. The series is classed as cell-based.
The target is the same in series [5]. Briefly: PROTAC activity at CRBN/SIRT6 in human Huh-7 cells assessed as induction of SIRT6 degradation upto 10 uM incubated for 36 hrs by Western blot analysis relative to control. The series is classed as cell-based.
Target sequence in this assay (Q8N6T7 2-355 limits assumed): as the sequence (Q8N6T7 2-355 limits assumed) above
Target sequence in this assay (Q96SW2 whole entry partner): as the sequence (Q96SW2 whole entry partner) above
For series [6] the target is unchanged. Briefly: PROTAC activity at CRBN/SIRT6 in human SK-HEP1 cells assessed as induction of SIRT6 degradation upto 10 uM incubated for 36 hrs by Western blot analysis relative to control. The series is classed as cell-based.
Target sequence in this assay (Q8N6T7 2-355 limits assumed): as the sequence (Q8N6T7 2-355 limits assumed) above
Target sequence in this assay (Q96SW2 whole entry partner): as the sequence (Q96SW2 whole entry partner) above
Series [7] has the same target. Kind of series: PROTAC activity at CRBN/SIRT6 in human SK-HEP1 cells assessed as induction of SIRT6 degradation at 2 uM incubated for 36 hrs by In-Cell ELISA relative to control. The series is classed as cell-based.
Target sequence in this assay (Q8N6T7 2-355 limits assumed): as the sequence (Q8N6T7 2-355 limits assumed) above
Target sequence in this assay (Q96SW2 whole entry partner): as the sequence (Q96SW2 whole entry partner) above
The target is the same in series [8]. Briefly: PROTAC activity at CRBN/SIRT6 in human SK-HEP1 cells assessed as induction of SIRT6 degradation at 2 to 3 uM incubated for 36 hrs by Western blot analysis. Type of series: cell-based. Conditions: dose 2-3 µM.
Target sequence in this assay (Q8N6T7 2-355 limits assumed): as the sequence (Q8N6T7 2-355 limits assumed) above
Target sequence in this assay (Q96SW2 whole entry partner): as the sequence (Q96SW2 whole entry partner) above
For series [9], the system named is SK-HEP1. Briefly: Cytotoxicity against human SK-HEP1 cells incubated for 72 hrs by CCK8 assay. Type of series: functional, cell-based. Conditions: SK-HEP1, 72 h. Background: Tetrazolium dyes change colour on reduction, which living cells bring about.
Series [10] deals with T1, Protein cereblon/NAD-dependent protein deacylase sirtuin-6. Briefly: PROTAC activity at CRBN/SIRT6 in human Huh-7 cells assessed as hook effect at 5 uM incubated for 36 hrs by Western blot analysis. The series is classed as cell-based.
A short description of series [11]: Toxicity in BALB/c nude mouse xenografted with human SK-HEP1 cells assessed as pathological damage in heart at 25 mg/kg treated for 28 to 30 days by H and E staining based analysis. Type of series: organism-based. The following applies: in vivo, time 28-30 day.
For series [12], the system named is SK-HEP1. Briefly: Antitumor activity against human SK-HEP1 cells xenografted in BALB/c nude mouse at 25 mg/kg treated for 28 to 30 days relative to control. Type of series: functional. Conditions: time 28-30 day.
Series [13] in a line: Toxicity in BALB/c nude mouse xenografted with human SK-HEP1 cells assessed as histopathological abnormalities in spleen at 25 mg/kg treated for 28 to 30 days by H and E staining based analysis. Type of series: organism-based. The following applies: in vivo, time 28-30 day.
The nature of series [14]: Toxicity in BALB/c nude mouse xenografted with human SK-HEP1 cells assessed as pathological damage in kidney at 25 mg/kg treated for 28 to 30 days by H and E staining based analysis. The following applies: in vivo, time 28-30 day. The series is classed as organism-based.
The nature of series [15]: Toxicity in BALB/c nude mouse xenografted with human SK-HEP1 cells assessed as histopathological abnormalities in lungs at 25 mg/kg treated for 28 to 30 days by H and E staining based analysis. Type of series: organism-based. The following applies: in vivo, time 28-30 day.
Series [16] can be described thus: Toxicity in BALB/c nude mouse xenografted with human SK-HEP1 cells assessed as body weight loss at 25 mg/kg treated for 28 to 30 days. The series is classed as organism-based. The following applies: in vivo, time 28-30 day.
Series [17] is described as follows: Toxicity in BALB/c nude mouse xenografted with human SK-HEP1 cells assessed as pathological damage in spleen at 25 mg/kg treated for 28 to 30 days by H and E staining based analysis. The series is classed as organism-based. Conditions: in vivo, time 28-30 day.
The nature of series [18]: Toxicity in BALB/c nude mouse xenografted with human SK-HEP1 cells assessed as pathological damage in liver at 25 mg/kg treated for 28 to 30 days by H and E staining based analysis. The series is classed as organism-based. Conditions: in vivo, time 28-30 day.
Series [19] in a line: Toxicity in BALB/c nude mouse xenografted with human SK-HEP1 cells assessed as histopathological abnormalities in heart at 25 mg/kg treated for 28 to 30 days by H and E staining based analysis. Type of series: organism-based. Conditions: in vivo, time 28-30 day.
Series [20] is described as follows: Toxicity in BALB/c nude mouse xenografted with human SK-HEP1 cells assessed as pathological damage in lungs at 25 mg/kg treated for 28 to 30 days by H and E staining based analysis. Type of series: organism-based. Conditions: in vivo, time 28-30 day.
The subject of series [21] is SK-HEP1. Briefly: Induction of SIRT6 degradation in human SK-HEP1 cells at 5 uM incubated for 36 hrs by In-Cell ELISA relative to control. Type of series: cell-based.
In series [22] the test system is SK-HEP1. Kind of series: Induction of SIRT6 degradation in human SK-HEP1 cells at 0.5 uM incubated for 36 hrs by In-Cell ELISA relative to control. The series is classed as cell-based.
Series [23] concerns the target NAD-dependent protein deacylase sirtuin-6 (Homo sapiens) (UniProt Q8N6T7). Briefly: Inhibition of SIRT6 in human SK-HEP1 cells assessed as increase in H3K9Ac level incubated for 36 hrs by Western blot analysis. The series is classed as cell-based. Conditions: dose 1.25-20 µM.
Series [24] concerns the target T1, Protein cereblon/NAD-dependent protein deacylase sirtuin-6. Kind of series: PROTAC activity at CRBN/SIRT6 in human SK-HEP1 cells assessed as efficiency of SIRT6 degradation at 2 uM incubated for 36 hrs by Western blot analysis relative to control. The series is classed as cell-based.
Series [25] has the same target. Briefly: PROTAC activity at CRBN/SIRT6 in human SK-HEP1 cells assessed as hook effect upto 5 uM incubated for 36 hrs by Western blot analysis. The series is classed as cell-based.

Activity calls are given as the source filed them. The calls are words filed in the database; no cut-off is given here. Where only a bound is given, the exact number is not on record here.

For orientation: DC50 means the concentration at which degradation of the target reaches its halfway point. Broadly, the Emax is the size of the effect at its maximum, as opposed to the concentration needed. For orientation: IC50 means the midpoint of a concentration-inhibition curve. High values mean weaker potency in that assay, low ones greater potency in that assay. The T/C is the ratio of treated to control.

Chain of NAD-dependent protein deacylase sirtuin-6 (Homo sapiens) (Q8N6T7 whole entry): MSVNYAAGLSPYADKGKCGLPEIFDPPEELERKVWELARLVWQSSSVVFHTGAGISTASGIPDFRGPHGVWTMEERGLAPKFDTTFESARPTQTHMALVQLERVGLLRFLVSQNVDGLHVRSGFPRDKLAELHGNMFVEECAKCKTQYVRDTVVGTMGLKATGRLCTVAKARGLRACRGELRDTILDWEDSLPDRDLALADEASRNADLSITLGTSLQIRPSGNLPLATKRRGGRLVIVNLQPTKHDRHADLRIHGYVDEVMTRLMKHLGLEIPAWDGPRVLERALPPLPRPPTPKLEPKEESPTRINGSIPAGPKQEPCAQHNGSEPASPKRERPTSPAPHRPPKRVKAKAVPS

Take `Nc1cc(N2CCN(CCCC3CCN(c4cc5c(cc4F)C(=O)N(C4CCC(=O)NC4=O)C5=O)CC3)CC2)ccc1[N+](=O)[O-]` (configuration not stated): the figures for the Activity in series [1], in [4] (dose 0.008-5 µM) and in series [7] were 90.3%, “Dose-dependent-effect; But Reduced Degradation Efficiency Observed” and 94.6%, respectively. The DC50 in [2] was found to be 50.4 nM; in series [4] it was 263 nM. For the same molecule, the result in series [3], in [8] and in series [10] was Active. The Emax in series [5] was found to be 81.5%; in series [6] it was 97.7%. Also, in the series on SK-HEP1 [9], the IC50 came out at 1640 nM.

In the case of `CNC(=O)c1cc(Oc2ccc(NC(=O)Nc3ccc(Cl)c(C(F)(F)F)c3)cc2)ccn1` [SORAFENIB], the Activity result in series [11] is listed as “Non-toxic”; in series [13] it was “Non-toxic”; in series [14] it was “Non-toxic”; in [15], “Non-toxic”; in series [16], “Toxic”; in series [17], “Non-toxic”. Also, the Activity result in series [18], in [19] and in series [20] was “Non-toxic” in each case. In the series with SK-HEP1 [12], the T/C stood at 35.4%.

Regarding `CN1CCN(c2ccc([N+](=O)[O-])c(N)c2)CC1`, the figures for the Activity in the series with SK-HEP1 [21] and in the series on SK-HEP1 [22] were 4.9% and 1.8%, respectively. In the series on SK-HEP1 [9], the 50% inhibitory concentration (IC50) is 4260 nM. Also, the inhibition entry in series [23] was “Dose-dependent-effect”.

As for `Nc1cc(N2CCN(CC3CCN(c4ccc5c(c4)C(=O)N(C4CCC(=O)NC4=O)C5=O)C3)CC2)ccc1[N+](=O)[O-]` (configuration not stated), the Activity is 11.9% in series [1], “Dose-dependent-effect” in [2], 98.2% in series [7] and more than 95% in series [24]. Also, the half-maximal degradation concentration (DC50) worked out at 91.5 nM in [2] and 360 nM in series [4]. Moreover, the Emax in [5] was determined as 78.5%; in series [6], 96.2%. Besides, the result in [8] was Active. Besides, the IC50 with SK-HEP1 [9] is 2190 nM. The outcome in [25] was inactive.

Regarding `Nc1cc(N2CCN(CC3CCN(c4ccc5c(c4)C(=O)N(C4CCC(=O)NC4=O)C5=O)CC3)CC2)ccc1[N+](=O)[O-]` (configuration not stated), the Activity is 85.9% in series [1], “Dose-dependent-effect” in series [2], 93.6% in series [7] and more than 95% in series [24]. The DC50 turned out to be 106 nM in series [2] and 239 nM in series [4]. The figures for the Emax in [5] and in series [6] were 90.6% and 94.8%, respectively. The outcome in series [8] was Active. Moreover, in the series on SK-HEP1 [9], the half-inhibitory concentration (IC50) amounted to 1750 nM. The outcome in [25] was inactive.

With `Nc1cc(N2CCN(CC3CCCN(c4cc5c(cc4F)C(=O)N(C4CCC(=O)NC4=O)C5=O)C3)CC2)ccc1[N+](=O)[O-]` (configuration not stated), the values for the Activity in [1] and in series [7] were less than 10% and 56.6%, respectively. For the same molecule, the outcome in [25] was inactive.

On to `Nc1cccc2c1C(=O)N(C1CCC(=O)NC1=O)C2=O` (configuration not stated), for which the figures for the Activity in the series with SK-HEP1 [21] and with SK-HEP1 [22] were 10.9% and 6.5%, respectively.

The values above are taken from ChEMBL document CHEMBL6120963, “Discovery of Novel PROTAC SIRT6 Degraders with Potent Efficacy against Hepatocellular Carcinoma” (J Med Chem, 2024).
